Data set [1] can be described thus: Excited state acidity / photoacidity (pKa*) from Foster cycle. Format: physicochemical. From the text: Investigations commenced determining the extent or existence of excited state proton transfer, photoacidity (pKa*), of vanillin and its analogs ortho-vanillin and iso-vanillin. From the Foster cycle, pKa* is mathematically defined by the following equation,
=pKa*+pKa+(EA−−EHA)/2.3RT.^1 (1)
(§1) Thus pKa* is most commonly calculated from the difference in the S1 excited state 0-0 transition of the acid (EHA) and the conjugate base (EA−)(2c). In order to determine the excited state acidity of the vanillin analogs, the ground state acidity was determined. An α-plot was made, by taking the UV-Vis spectra of ortho-vanillin at various pH using NaOH and HCl as the base and acid respectively (5c). Both iso-vanillin and vanillin ground state acidities were literature reported. After obtaining the ground state acidity the excited state acidity (pKa*) was investigated. Fluorescence, phosphorescence and luminescence spectra were measured in different solvents. It was determined that none of the vanillin analogs fluoresced appreciably and therefore were all poor photoacids. […] Various substituted Grignard reagents were used to reduce the carbonyl to a tertiary alcohol therefore eliminating the carbonyl functionality and hindering inter-system crossing (FIG. 32).
(§2) The ground state and excited state acidities were determined. […] Derivatives 1a and 1b were handled in a similar fashion.

Data set [2] is described as follows: Ground state acidity (pKa) from α-plot of UV-Vis spectra at various pH. Format: physicochemical. Here is the method: as §1, §2

`COc1ccc(C(C)O)cc1O` (stereo not drawn) [1b]: the “pKa*” value in data set [1] is 5.6. Besides, the pKa in data set [2] was 9.8.
Turning to `COc1cccc(C(C)O)c1O` (stereo not drawn) [1c], the “pKa*” value in data set [1] is recorded as 4.9. In data set [2], the pKa worked out at 8.
In the case of `COc1cc(C(C)O)ccc1O` (stereo not drawn) [1a], the “pKa*” value in data set [1] is recorded as 9.6. For the same molecule, the pKa in data set [2] turned out to be 9.8.

For the origin of these results see US20210163424A1, “ECO-FRIENDLY MATERIALS AND METHODS FOR RENEWABLE AND SUSTAINABLE APPLICATIONS IN MATERIAL CHEMISTRY” (NDSU RESEARCH FOUNDATION, priority 2016, published 2021).
